Source: patent US20170202932A1, “METHODS FOR INHIBITING NEURON APOPTOSIS AND NECROSIS” (NEWSOUTH INNOVATIONS PTY LIMITED, priority 2012, published 2017)

Assays:
[1] = biological target: T1, recombinant mouse TRPC3b channels (Mus musculus, UniProt Q9QZC1, R524G); test: Whole-cell patch clamp of CCh-activated current, HEK293 cells expressing TRPC3b; type: cell-based; conditions: TRPC3b+CCh (100 μM)+genistein 200 μM pre-incubation; Vh=−50 mV; n=6; CCh alone −235.0±28.7 pA
T1 construct: Full length mouse TRPC3 transcripts were obtained by PCR; expressed in transfected cells; host or cells: HEK293 cells, stably transfected (pIRES-DsRed2 vector)
T1 sequence (Q9QZC1 75-910 R524G limits assumed): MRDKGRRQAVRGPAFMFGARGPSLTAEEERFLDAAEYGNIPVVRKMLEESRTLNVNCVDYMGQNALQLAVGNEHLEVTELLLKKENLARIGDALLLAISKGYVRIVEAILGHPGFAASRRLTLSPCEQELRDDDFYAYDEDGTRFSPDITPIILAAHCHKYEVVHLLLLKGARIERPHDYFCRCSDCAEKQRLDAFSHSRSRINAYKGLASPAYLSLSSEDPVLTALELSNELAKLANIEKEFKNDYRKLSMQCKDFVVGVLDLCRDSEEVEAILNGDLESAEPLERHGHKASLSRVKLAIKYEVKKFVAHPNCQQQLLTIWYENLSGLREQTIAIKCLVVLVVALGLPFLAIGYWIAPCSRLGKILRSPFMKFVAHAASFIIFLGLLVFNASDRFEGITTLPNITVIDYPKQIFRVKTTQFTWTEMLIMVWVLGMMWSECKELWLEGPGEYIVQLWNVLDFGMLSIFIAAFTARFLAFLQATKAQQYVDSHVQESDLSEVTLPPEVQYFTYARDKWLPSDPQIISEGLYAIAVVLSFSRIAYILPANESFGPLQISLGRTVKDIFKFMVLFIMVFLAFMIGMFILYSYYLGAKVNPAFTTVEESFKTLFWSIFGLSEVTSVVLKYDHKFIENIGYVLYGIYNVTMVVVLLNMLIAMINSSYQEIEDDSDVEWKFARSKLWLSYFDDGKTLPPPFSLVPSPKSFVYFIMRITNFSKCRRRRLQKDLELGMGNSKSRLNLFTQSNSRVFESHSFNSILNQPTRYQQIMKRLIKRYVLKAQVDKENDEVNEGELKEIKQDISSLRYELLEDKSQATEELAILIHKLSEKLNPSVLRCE
Procedure: For whole cell patch clamp recordings, HEK293 cells stably expressing recombinant TRPC3 ion channels were grown to 85-95% confluence on a coverslip coated with poly-D-lysine and collagen (both from Sigma-Aldrich, U.S.A.). Recording pipettes were made from borosilicate glass (GC120TF-10, Harvard Apparatus, U.K.). The pipette resistance was at 3-6 MΩ (PC-10, Narishige, Japan). The internal solution had the composition: 130 mM CsCl, 2 mM MgCl2, 10 mM EGTA, 0.3 mM ATP, 0.03 mM GTP, pH at 7.3 adjusted with CsOH. Cells on the coverslip were placed in a microchamber on an inverted microscope (Leica DMIL, Germany) and superfused with HEPES-buffered physiological salt solution (HPSS) containing 120 mM NaCl, 5.4 mM KCl, 2 mM CaCl2, 1.13 mM MgCl2, 10 mM glucose, 20 mM HEPES (pH 7.4) at room temperature.
Whole cell patch clamp recordings were made following a gigaseal, using an Axopatch 200 patch clamp amplifier (Molecular Devices, U.S.A.) controlled by software (pClamp 10.2, Molecular Devices, U.S.A.). Cell capacitance was cancelled and series resistance was compensated by ˜90%. […] Carbachol (used to activate TRPC3 channels via the endogenously expressed M3 AChR) was purchased from Sigma-Aldrich (U.S.A.). DHPG (—(S)-2-amino-2-(3,5-dihydroxyphenyl)acetic acid), a group I mGluR agonist (Schoepp et al. 1994), was purchased from Tocris Bioscience (U.K.). […]

src tyrosine kinase = src tyrosine kinase (Homo sapiens, UniProt P12931); conditions: cited from earlier work
src tyrosine kinase, sequence (P12931 whole entry): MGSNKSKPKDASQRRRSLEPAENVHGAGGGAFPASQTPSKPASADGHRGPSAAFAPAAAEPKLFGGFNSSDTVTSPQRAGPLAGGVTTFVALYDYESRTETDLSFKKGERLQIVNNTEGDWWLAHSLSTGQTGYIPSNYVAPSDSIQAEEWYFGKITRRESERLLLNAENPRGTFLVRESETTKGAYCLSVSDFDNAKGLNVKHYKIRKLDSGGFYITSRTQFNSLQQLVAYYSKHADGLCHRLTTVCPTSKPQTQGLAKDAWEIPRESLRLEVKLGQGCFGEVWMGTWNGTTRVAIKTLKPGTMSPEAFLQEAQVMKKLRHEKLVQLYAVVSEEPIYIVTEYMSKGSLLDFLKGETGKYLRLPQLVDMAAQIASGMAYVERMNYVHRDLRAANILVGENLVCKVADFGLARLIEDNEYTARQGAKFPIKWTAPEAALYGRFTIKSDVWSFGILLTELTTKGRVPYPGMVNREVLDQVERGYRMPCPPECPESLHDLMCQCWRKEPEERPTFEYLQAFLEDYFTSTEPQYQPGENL

[2] = system: mouse cerebellar brain slices; test: Oxygen glucose deprivation (OGD) in organotypic cerebellar brain slices, propidium iodide staining; type: cell-based; conditions: genistein 200 μM
Procedure: TRPC3c-mediated brain injury arising from transient oxygen glucose deprivation (OGD) was evaluated in organotypic cerebellar brain slices using the TRPC channel blocker Genistein. The brain slices (400 μm) were prepared as described in Example 5. Mice ([…] strain, 6-8 weeks old) were anaesthetized with pentobarbital and decapitated. The brain was removed and submerged in ice cold modified artificial cerebral spinal fluid (ACSF) solution containing 4 mM KCl, 5 mM MgCl2, 1 mM CaCl2, 26 mM NaHCO3, 10 mM glucose, 246 mM sucrose equilibrated with 95% CO2, 5% O2. Slices were cut with a VT1200 vibratome (Leica, Germany) and were allowed to recover in culture medium (75% Minimum Essential Medium (MEM), 25% heat-inactivated horse serum, 25 mM HEPES, 1 mM glutamine, 27.7 mM glucose) for at least 1 h in a tissue culture incubator (37° C., 5% CO2 in air). Hurtado de Mendoza et al. (2011) J Vis Exp. (51). (pii):2564).
For OGD-induced neuronal loss, the brain slices were placed in an anaerobic chamber (Coy Laboratory Products, USA; 100% N2) in OGD medium (75% MEM, 25% Hanks Buffered Salt Solution, 1 mM glutamine) Radley et a. (2012). Neurosci Lett. 506 (1):131-5). Controls included slices placed directly into culture medium in a tissue culture incubator (37° C., 5% CO2 in air). Slices were exposed to OGD for 0, 15 and 30 minutes, with or without 200 μM genistein (n=2 for each condition). […]

## O=c1c(-c2ccc(O)cc2)coc2cc(O)cc(O)c12 [genistein, 4′, 5,7-trihydroxyisoflavone]
[1]
  mean peak CCh-activated whole-cell inward current: −24.8±9.7 pA
Src tyrosine kinase
  src tyrosine kinase-mediated phosphorylation of TRPC3: inhibit
[2]
  propidium iodide fluorescence in granule cell layer and molecular layer after OGD: reduced propidium iodide fluorescence
[2]; 15 mins and 30 mins OGD, n=2 slices per condition
  neuronal loss and oedema in the Purkinje cell layer after OGD: provided protection from the neuronal loss and oedema in the PCL
